The conditions of data set [1]: Cherney et al. 2014; cited from earlier work.
The conditions of data set [2]: patients with type 2 diabetes mellitus and high cardiovascular risk; cited from earlier work.
The conditions of data set [3]: crystalline form (WO 2006/117359, WO 2011/039107); cited from earlier work.
Data set [4] can be described thus: Clinical studies of haemodynamic, vascular and autonomic cardiovascular effects of empagliflozin. The data set is classed as in vivo. From the text:
It may be assumed that altered glucose and sodium gradients within the kidney may generate a sympathoinhibitory afferent renal nerve signal. The lack of sympathetic activation may contribute to a beneficial cardiovascular and renal profile of empagliflozin (cardiorenal axis). Based on clinical and non-clinical studies including mechanistic considerations, such as the effect of empagliflozin on human autonomic cardiovascular regulation, the use of empagliflozin in the treatment and prevention of certain diseases and conditions, in particular in chronic heart failure, acute heart failure and chronic kidney disease, is described hereinbefore and hereinafter.

The conditions of data set [5]: metformin on its own, in the diabetic; cited from earlier work.

Each structure is given as a SMILES string.

Turning to `OC[C@H]1O[C@@H](c2ccc(Cl)c(Cc3ccc(O[C@H]4CCOC4)cc3)c2)[C@H](O)[C@@H](O)[C@@H]1O` [empagliflozin, 1-chloro-4-(β-D-glucopyranos-1-yl)-2-[4-((S)-tetrahydrofuran-3-yloxy)-benzyl]-benzene], in data set [1], the arterial stiffness result is reported as “reduced arterial stiffness”, the direct vascular effects entry is listed as “direct vascular effects” and the diuretic effect result is given as “shows a diuretic effect”. Also, in data set [2], the “risk of hospitalization for heart failure” value is reported as “reduced the risk”. In data set [3], the physico-chemical stability entry is given as “physico-chemically stable” and the solubility entry is “good solubility properties”. In data set [4] (in contrast to increases observed with diuretics), the reflex-mediated sympathetic activation result was “not being associated with clinically relevant reflex-mediated sympathetic activation”. Moreover, in data set [4] (treatment with empagliflozin), the blood pressure result was “blood pressure reductions”; the heart rate entry was “without clinically relevant changes of the heart rate”; the “rate pressure product (RPP), surrogate marker of cardiac oxygen demand” value was “improving rate pressure product”.

`CN(C)C(=N)N=C(N)N` [metformin]: the “average improvement in the HbA1c value” in data set [5] is given as 1.0-1.5%.
